Experiments:
[1] = target: T1, rat central A2 adenosinergic receptors (Rattus norvegicus, UniProt P30543); assay: Binding to adenosine A2 receptors ([3H] NECA displacement); conditions: [3H] NECA 4 nM, n=3; for inhibition at 10 µM: read-out: % displacement of the labeled ligand, A2, 1E-5M; for inhibition at 0.1 µM: read-out: % displacement of the labeled ligand, A2, 1E-7M
T1 construct: the striatum is removed from each of them (Bruns et al., 1986); from tissue; host or cells: rat striatum, homogenate (membrane preparation)
Description: (§1) The affinity of the products of the Examples for the rat central A1 and A2 adenosinergic receptors is determined by the competitive technique using a radioactive ligand specifically bound either to the A1 receptors ([^3 H] PIA) or to the A2 receptors ([^3 H] NECA).
Method of studying the A2 receptors Membrane preparation
After decapitation of the animal, the brain is quickly removed and washed in cold isotonic solution. The two hemispheres are separated and the striatum is removed from each of them (Bruns et al., 1986), weighed and introduced into a polyallomer tube containing 10 volumes of cold homogenization buffer. The tissue is homogenized with an Ultra-Turrax for 30 seconds (3 times 10 seconds with 10-second intervals, 70% of the maximum speed). The ground material is centrifuged at 50,000 g (≈20,500 rpm) for 10 minutes at 4° C.
The residue obtained is resuspended in 10 volumes of homogenization buffer using a Vortex and homogenized with the Ultra-Turrax (5 to 10 seconds, 70% of the maximum speed).
Adenosine deaminase is then added at a rate of 1 U/ml, i.e. 1 μl/ml of homogenate, using a 10 μl Hamilton syringe. The homogenate treated in this way is shaken at room temperature for 30 minutes.
When the incubation is complete, the homogenate is centrifuged at 50,000 g (≈20,500 rpm) for 10 minutes at 4° C.
The residue is taken up with 5 volumes of cold homogenization buffer and passed through the Ultra-Turrax (2 times 10 seconds with a 10-second interval, 70% of the maximum speed) and the homogenate prepared in this way is finally frozen at -70° C. Competitive test
After the homogenate has been thawed at room temperature, 15 volumes of incubation buffer are added. The homogenate is shaken on a Vortex, passed through a Potter mill (6 to-and-fro movements, speed 6), diluted to 1/10 in incubation buffer and finally placed in a water bath thermostated at 4° C., with shaking, until the end of the experiment.
(§2) 50 μl of [^3 H] NECA at 160 nM, i.e. 4 nM in the final reaction medium allowing for the 1/40 dilution, and 50 μl of the product of the Example at the concentrations considered (10^-5 M and 10^-7 M) are introduced into the reaction tubes. The reaction is initiated by the addition of 1 ml of homogenate and 900 μl of incubation buffer. The procedure is similar for all the compounds studied.
The tubes are shaken and incubated in a water bath at 25° C. for 60 minutes. When the incubation is complete, the contents of the tubes are filtered on Whatman GF/B paper. Each tube is washed twice with 2 ml of rinsing buffer and then the filters themselves are rinsed with 3 ml of this same buffer before being transferred to counting flasks.
10 ml of liquid scintillator (Ready Solv HP/b, Beckman) are added to all the flasks. These are shaken and stored in a refrigerator overnight. The radioactivity is determined in a liquid scintillation counter.
(§3) 3 tests are performed for each concentration studied. The non-specific binding of the [^3 H] NECA is determined by measuring the amount of radioactivity retained on the filter in the presence of 5 μM N-ethylcarboxamidoadenosine (NECA). The value of the non-specific binding is systematically subtracted from that of the tests.
(§4) The results are expressed for each product in the form of the percentage displacement (n=3) of the labeled radioligand at concentrations of 10^-5 M and 10^-7 M.

[2] = target: T2, rat central A1 adenosinergic receptors (Rattus norvegicus, UniProt P25099); assay: Binding to adenosine A1 receptors ([3H] PIA displacement); conditions: [3H] PIA 2.5 nM, n=3; for inhibition at 10 µM: read-out: % displacement of the labeled ligand, A1, 1E-5M; for inhibition at 0.1 µM: read-out: % displacement of the labeled ligand, A1, 1E-7M
T2 construct: After the animal has been sacrificed by decapitation, the brain is quickly removed and washed in cold isotonic solution; from tissue; host or cells: rat brain, membrane preparation from the two hemispheres
T2 sequence (P25099 1-326): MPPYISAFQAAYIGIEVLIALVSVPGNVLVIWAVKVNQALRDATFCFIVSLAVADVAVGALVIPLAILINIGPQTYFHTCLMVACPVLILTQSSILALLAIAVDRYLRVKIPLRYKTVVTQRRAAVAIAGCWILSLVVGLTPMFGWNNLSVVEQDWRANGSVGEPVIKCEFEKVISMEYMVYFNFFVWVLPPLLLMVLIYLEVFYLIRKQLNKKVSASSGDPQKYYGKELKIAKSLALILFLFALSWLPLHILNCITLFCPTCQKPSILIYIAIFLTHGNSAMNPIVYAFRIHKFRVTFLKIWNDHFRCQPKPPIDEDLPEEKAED
Description: as §1
After the animal has been sacrificed by decapitation, the brain is quickly removed and washed in cold isotonic solution. The two hemispheres are separated and weighed and each of them is introduced into a polyallomer tube containing 25 volumes of cold homogenization buffer. Homogenization is effected using an Ultra-Turrax for 30 seconds (3 times 10 seconds with 10-second intervals, 70% of the maximum speed). The ground material obtained is centrifuged at 1000 g (≈3000 rpm) for 10 minutes at 4° C.
The supernatant is centrifuged again at 48,000 g (≈20,000 rpm) for 20 minutes at 4° C.
When this step is complete, the residue is taken up with 4 volumes of homogenization buffer, resuspended using a Vortex and homogenized with the Ultra-Turrax. Adenosine deaminase is then added at a rate of 1 U/ml, i.e. 1 μl/ml of homogenate, using a 10 μl Hamilton syringe.
After this treatment, the homogenate is shaken for 30 minutes at room temperature and then centrifuged at […] (≈20,000 rpm) for 30 minutes at 4° C.
The residue obtained is resuspended in 10 volumes of homogenization buffer and passed through the Ultra-Turrax for 20 seconds (2 times 10 seconds with a 10-second interval, 70% of the maximum speed).
The homogenate prepared in this way is used for the competitive tests. It is kept at 4° C. if the studies take place the same day, or stored at -20° C. in the form of 10 ml aliquots.
After the homogenate has been thawed at room temperature, it is passed through a Potter mill (6 manual to-and-fro movements, speed 6), diluted to 2/5 in incubation buffer and placed in a water bath thermostated at 4° C., with shaking, until the end of the experiment.
as §2, with “H] PIA” for “H] NECA”, “at 100” for “at 160”, “i.e. 2.5” for “i.e. 4”, “considered ([…]” for “considered (10^-5”, “is identical” for “is similar”, “the […]” for “the compounds”
The tubes are shaken and incubated in a water bath at 20° C. for 30 minutes. When the incubation is complete, the contents of the tubes are filtered on Whatman GF/B paper. Each tube is washed twice with 2 ml of rinsing buffer and then the filters themselves are rinsed with 3 ml of this same buffer.
The filters are then transferred to counting flasks and 10 ml of liquid scintillator (Ready Solv HP/b, Beckman) are added.
After they have been shaken, the flasks are stored in a refrigerator overnight and the radio-activity is then determined in a liquid scintillation counter.
as §3, with “PIA” for “NECA”, “assessed” for “determined”, “10^-5 M phenylisopropyladenosine (PIA).” for “5 μM N-ethylcarboxamidoadenosine (NECA).”
as §4

[3] = Phenylbenzoquinone test (analgesic activity); format: in vivo; conditions: Mus musculus, 1 h; mice; oral, one hour before phenylbenzoquinone i.p.; 5 minutes observation; read-out: Phenylbenzoquinone test 50% inhibitory dose
Description: 2. Phenylbenzoquinone test
The intraperitoneal injection of phenylbenzoquinone causes twisting and stretching movements in mice. Analgesics prevent or reduce this syndrome, which can be considered as the exteriorization of diffuse abdominal pain.
A 0.02% solution of phenylbenzoquinone in water is administered in a volume of 1 ml/100 g.
The products of the Examples are administered orally one hour before the injection of phenylbenzoquinone.
The stretching and twisting movements are counted for each mouse over an observation period of 5 minutes.

T1 sequence (P30543 whole entry): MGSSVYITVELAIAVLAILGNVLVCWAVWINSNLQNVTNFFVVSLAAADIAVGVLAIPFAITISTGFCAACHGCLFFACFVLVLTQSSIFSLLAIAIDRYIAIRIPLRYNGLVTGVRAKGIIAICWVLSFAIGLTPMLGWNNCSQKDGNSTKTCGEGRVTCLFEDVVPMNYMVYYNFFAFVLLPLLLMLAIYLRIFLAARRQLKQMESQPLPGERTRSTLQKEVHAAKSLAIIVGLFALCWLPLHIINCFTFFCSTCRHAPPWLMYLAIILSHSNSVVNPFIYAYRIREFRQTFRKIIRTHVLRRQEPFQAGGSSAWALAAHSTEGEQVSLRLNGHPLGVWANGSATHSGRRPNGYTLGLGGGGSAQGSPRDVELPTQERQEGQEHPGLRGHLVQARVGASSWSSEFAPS

SMILES	inhibition at 10 µM ([1]; 1E-5M)	inhibition at 0.1 µM ([1]; 1E-7M)	inhibition at 10 µM ([2]; 1E-5M)	inhibition at 0.1 µM ([2]; 1E-7M)	% displacement of the labeled ligand, A2, 1E-5M ([1]; 1E-5M, 10 µM)	% displacement of the labeled ligand, A2, 1E-7M ([1]; 1E-7M, 0.1 µM)	% displacement of the labeled ligand, A1, 1E-5M ([2]; 1E-5M, 10 µM)	% displacement of the labeled ligand, A1, 1E-7M ([2]; 1E-7M, 0.1 µM)	ED50 [3]
Cc1ccc(Cn2cc(CCNc3ncnc4c3ncn4[C@@H]3O[C@H](C(=O)NC4CC4)[C@@H](O)[C@H]3O)c3ccccc32)cc1C [Example 67, β-D-Ribofuranuronamido-N-cyclopropyl-1-deoxy-1-[6-[[2-[1-(3,4-dimethylbenzyl)indol-3-yl]ethyl]amino]-9H-purin-9-yl]]	83%	13%	96%	29%	–	–	–	–	3 mg/kg
O=C(NC1CC1)[C@H]1O[C@@H](n2cnc3c(NCCc4cn(CCN5CCOCC5)c5ccccc45)ncnc32)[C@H](O)[C@@H]1O [Example 69, β-D-Ribofuranuronamido-N-cyclopropyl-1-deoxy-1-[6-[[2-[1-(2-N-morpholinoethyl)indol-3-yl]ethyl]amino]-9H-purin-9-yl]]	90%	12%	93%	63%	–	–	–	–	–
Cc1ccc(C)c(Cn2cc(CCNc3ncnc4c3ncn4[C@@H]3O[C@H](C(=O)NC4CC4)[C@@H](O)[C@H]3O)c3ccccc32)c1 [Example 68, β-D-Ribofuranuronamido-N-cyclopropyl-1-deoxy-1-[6-[[2-[1-(2,5-dimethylbenzyl)indol-3-yl]ethyl]amino]-9H-purin-9-yl]]	84%	9%	93%	26%	–	–	–	–	2.4 mg/kg
O=C(NC1CC1)[C@H]1O[C@@H](n2cnc3c(NCCc4cn(C5CCCC5)c5ccccc45)ncnc32)[C@H](O)[C@@H]1O [Example 64, β-D-Ribofuranuronamido-1-[6-[[2-[1-cyclopentylindol-3-yl]ethyl]amino]-9H-purin-9-yl]-N-cyclopropyl-1-deoxy]	90%	28%	96%	21%	–	–	–	–	0.3 mg/kg
O=C(NC1CC1)[C@H]1O[C@@H](n2cnc3c(NCCc4cn(Cc5ccc(Cl)cc5)c5ccccc45)ncnc32)[C@H](O)[C@@H]1O [Example 61, β-D-Ribofuranuronamido-1-[6-[[2-[1-(4-chlorobenzyl)indol-3-yl]ethyl]amino]-9H-purin-9-yl]-N-cyclopropyl-1-deoxy]	91%	30%	98%	47%	–	–	–	–	0.9 mg/kg
COCCn1cc(CCNc2ncnc3c2ncn3[C@@H]2O[C@H](C(=O)NC3CC3)[C@@H](O)[C@H]2O)c2ccccc21 [Example 63, β-D-Ribofuranuronamido-N-cyclopropyl-1-deoxy-1-[6-[[2-[1-(2-methoxyethyl)indol-3-yl]ethyl]amino]-9H-purin-9-yl]]	90%	19%	98%	61%	–	–	–	–	10 mg/kg

Continued, in another order:

inhibition at 10 µM ([1]; 1E-5M)	inhibition at 0.1 µM ([1]; 1E-7M)	inhibition at 10 µM ([2]; 1E-5M)	inhibition at 0.1 µM ([2]; 1E-7M)	% displacement of the labeled ligand, A2, 1E-5M ([1]; 1E-5M, 10 µM)	% displacement of the labeled ligand, A2, 1E-7M ([1]; 1E-7M, 0.1 µM)	% displacement of the labeled ligand, A1, 1E-5M ([2]; 1E-5M, 10 µM)	% displacement of the labeled ligand, A1, 1E-7M ([2]; 1E-7M, 0.1 µM)	SMILES	ED50 [3]
85%	22%	96%	45%	–	–	–	–	CC(Cc1cn(C2CCCC2)c2ccccc12)Nc1ncnc2c1ncn2[C@@H]1O[C@H](C(=O)NC2CC2)[C@@H](O)[C@H]1O (stereo partly drawn) [Example 93, β-D-Ribofuranuronamido-N-cyclopropyl-1-deoxy-1-[6-[[1-[1-cyclopentylindol-3-yl]-propan-2-yl]amino]-9H-purin-9-yl]]	2 mg/kg
94%	44%	100%	91%	–	–	–	–	CN(C)CCn1cc(CCNc2ncnc3c2ncn3[C@@H]2O[C@H](C(=O)NC3CC3)[C@@H](O)[C@H]2O)c2ccccc21 [Example 70, β-D-Ribofuranuronamido-N-cyclopropyl-1-deoxy-1-[6-[[2-[1-(2-N,N-dimethylaminoethyl)indol-3-yl]ethyl]amino]-9H-purin-9-yl]]	–
–	–	–	–	92%	46%	99%	94%	O=C(NC1CC1)[C@H]1O[C@@H](n2cnc3c(NCCc4cn(CCN5CCCCC5)c5ccccc45)ncnc32)[C@H](O)[C@@H]1O [Example 71 (base), β-D-Ribofuranuronamido-N-cyclopropyl-1-deoxy-1-[6-[[2-[1-(2-N-piperidinoethyl)indol-3-yl]ethyl]amino]-9H-purin-9-yl]]	–

Source: patent US5480983A, “Adenosine derivatives, preparation methods and pharmaceutical compositions containing them” (Laboratoires UPSA, priority 1992, dated 1996)
